Values after ≈ are worked out from the molar mass of the structure shown. Where two headings read alike, the source gives them in different places.

Data set [1] concerns Salmonella typhi. Description: microbe, parasite or virus in culture. The class given is cell-based, Salmonella typhi (ATCC-14028). The note with it: for zone of inhibition at 400 µg/disc: Salmonella enterica.
A short description of data set [2]: Brine shrimp lethality bioassay (cytotoxicity). Conditions: Artemia salina (brine shrimp nauplii), in vivo.
Data set [3] addresses T1, BChE enzyme from human blood (Homo sapiens, UniProt P06276).
T1 construct: BChE enzyme from human blood of a volunteer; from tissue; host or cells: human blood of a volunteer
Description: Anti-BChE assay, Ellman method. The class given is biochemical. The protocol:
(§1) We used the prepared AChE enzyme from mice brain and BChE enzyme from human blood of a volunteer that has been mentioned earlier. Various concentrations of the compound (500 μL) were mixed with the enzyme solution (500 μL) and incubated at 37 °C for 30 min. A reaction mixture was prepared that contained 0.5 mM acetylthiocholine/butyrylthiocholine and 1 mM DTNB in 50 mM sodium phosphate buffer (pH 8.0). To the reaction mixture (3.5 mL), the enzyme solution containing compound was added, incubated, and immediately the absorbance of the solution was determined at 412 nm. […] The percent inhibition was calculated by dividing the difference of sample absorbance from control with control absorbance × 100.
Background: Ellman's reagent forms a yellow product with free thiols.

The test system of data set [4] is Shigella dysenteriae. Description: microbe, parasite or virus in culture. Type of data set: cell-based, Shigella dysenteriae (AL-35587).
The test system of data set [5] is Aspergillus flavus. Description: microbe, parasite or virus in culture. The class given is cell-based, Aspergillus flavus (ATCC-9807).
In data set [6] the test system is Aspergillus niger. Type of data set: cell-based, Aspergillus niger (ATCC-1204).
The subject of data set [7] is Staphylococcus aureus. Description: microbe, parasite or virus in culture. The class given is cell-based, Staphylococcus aureus (ATCC-259233).
Data set [8] concerns Pseudomonas aeruginosa. Description: microbe, parasite or virus in culture. Type of data set: cell-based, Pseudomonas aeruginosa (ATCC-27853).
Data set [9] can be described thus: Reducing power assay (antioxidant, Fe3+ to Fe2+). The note with it: at a concentration of 40 µg/mL, absorbance at 700 nm.
The test system of data set [10] is Shigella sonnei. The data set is described as follows: microbe, parasite or virus in culture. Type of data set: cell-based, Shigella sonnei (AJ-8992).
For data set [11], the system named is Bacillus Subtilis. The data set is described as follows: microbe, parasite or virus in culture. Type of data set: cell-based, Bacillus subtilis (QL-40).
In data set [12] the test system is Shigella flexneriae. The data set is described as follows: microbe, parasite or virus in culture. Type of data set: cell-based, Shigella flexneriae (AM-36282).
Data set [13] deals with Klebsiella species. The data set is described as follows: microbe, parasite or virus in culture. The class given is cell-based.
The target of data set [14] is T2, AChE enzyme from mice brain (Mus musculus, UniProt P21836).
T2 construct: We used the prepared AChE enzyme from mice brain; from tissue; host or cells: mouse brain
Description: biochemical. The procedure: as §1

In data set [15] the test system is Fusarium species. Description: microbe, parasite or virus in culture. The class given is cell-based.
Data set [16] has as its system Escherichia coli. Description: microbe, parasite or virus in culture. The class given is cell-based, Escherichia coli (FPFC-1407).
Data set [17] deals with Candida species. The data set is described as follows: microbe, parasite or virus in culture. Type of data set: cell-based.
Data set [18] has as its system Strep-β-haemolyticus. The data set is described as follows: organism not typed. Type of data set: cell-based, Streptococcus-ß-haemolyticus (ATCC-10389).
The test system of data set [19] is Shigella boydii. The data set is described as follows: microbe, parasite or virus in culture. Type of data set: cell-based, Shigella boydii (AL-17313).
Data set [20] concerns Bacillus megaterium. Description: microbe, parasite or virus in culture. The class given is cell-based, Bacillus megaterium (QL-38). Conditions: for zone of inhibition at 400 µg/disc: Priestia megaterium.
The subject of data set [21] is Shigella shiga. Description: microbe, parasite or virus in culture. The class given is cell-based, Shigella shiga (ATCC-26107). The note with it: for zone of inhibition at 400 µg/disc: Shigella.
In data set [22] the test system is Sarcina lutea. Description: microbe, parasite or virus in culture. Conditions: for zone of inhibition at 400 µg/disc: Micrococcus luteus. Type of data set: cell-based, Sarcina lutea (QL-1660).
The subject of data set [23] is brine shrimp nauplii (Artemia salina Lech). The data set is described as follows: Brine shrimp lethality bioassay (cytotoxicity). The note with it: brine shrimp lethality, 5–80 μg/mL.

T2 sequence (P21836 32-614): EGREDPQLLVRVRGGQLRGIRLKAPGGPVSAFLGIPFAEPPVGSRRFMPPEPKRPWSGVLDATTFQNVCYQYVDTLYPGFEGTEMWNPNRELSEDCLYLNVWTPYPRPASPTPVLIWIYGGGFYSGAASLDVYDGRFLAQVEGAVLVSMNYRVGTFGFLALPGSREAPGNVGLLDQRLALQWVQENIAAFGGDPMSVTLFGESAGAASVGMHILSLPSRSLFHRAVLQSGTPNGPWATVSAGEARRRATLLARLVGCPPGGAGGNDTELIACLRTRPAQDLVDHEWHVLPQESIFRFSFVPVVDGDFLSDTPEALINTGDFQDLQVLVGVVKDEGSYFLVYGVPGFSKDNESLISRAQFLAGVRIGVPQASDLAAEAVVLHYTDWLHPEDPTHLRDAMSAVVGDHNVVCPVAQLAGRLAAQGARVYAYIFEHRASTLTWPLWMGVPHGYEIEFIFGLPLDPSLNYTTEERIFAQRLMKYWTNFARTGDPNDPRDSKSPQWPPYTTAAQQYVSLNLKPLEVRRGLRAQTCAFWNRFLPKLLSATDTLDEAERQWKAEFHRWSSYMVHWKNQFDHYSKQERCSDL
T1 sequence (P06276 29-602): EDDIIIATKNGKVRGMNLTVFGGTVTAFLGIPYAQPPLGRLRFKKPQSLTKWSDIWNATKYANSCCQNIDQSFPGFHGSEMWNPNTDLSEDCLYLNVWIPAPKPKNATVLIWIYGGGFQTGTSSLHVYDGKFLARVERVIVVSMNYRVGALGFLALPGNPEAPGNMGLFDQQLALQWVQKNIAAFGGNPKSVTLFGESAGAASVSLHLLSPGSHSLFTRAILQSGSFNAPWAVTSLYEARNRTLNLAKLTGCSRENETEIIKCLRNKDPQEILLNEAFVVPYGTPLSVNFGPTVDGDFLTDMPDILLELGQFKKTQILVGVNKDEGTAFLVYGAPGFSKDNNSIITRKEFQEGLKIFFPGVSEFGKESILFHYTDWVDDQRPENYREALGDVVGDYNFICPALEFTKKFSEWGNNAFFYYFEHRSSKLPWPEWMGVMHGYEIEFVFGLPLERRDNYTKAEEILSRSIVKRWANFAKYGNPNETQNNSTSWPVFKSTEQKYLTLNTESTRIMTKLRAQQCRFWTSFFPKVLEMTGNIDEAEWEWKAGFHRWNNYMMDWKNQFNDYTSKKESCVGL

The term zone of inhibition denotes the extent of the growth-free halo in a diffusion test. Low readings indicate a weaker effect on the plate, high ones a stronger effect on the plate. A word on the LC50: it is the concentration that kills 50% of the test population. As a reminder, the IC50 is the point on the concentration scale where inhibition reaches its midpoint. As to `C=C1C[C@@]23CCC4[C@](C)(C(=O)O)CCC[C@@]4(C)[C@@H]2CC[C@@H]1C3` (single isomer, unassigned; (-)) [Compound 2, (-) kaur-16-en-19-oic acid], the zone of inhibition at 400 µg/disc in data set [1] (400 μg/disc) was 15 mm; in data set [4] (400 μg/disc), 20 mm; in data set [5] (400μg/disc) it was 17 mm; in data set [7] (400 μg/disc), 13 mm; in [8] (400 μg/disc), 16 mm; in [10] (400 μg/disc) it was 13 mm. Further, the zone of inhibition at 400 µg/disc in data set [11] (400 μg/disc) turned out to be 14 mm; in data set [12] (400 μg/disc), 13 mm; in data set [13] (400 μg/disc) it was 17 mm; in [15] (400μg/disc) it was 11 mm; in data set [16] (400 μg/disc), 16 mm; in [17] (400μg/disc), 13 mm. Besides, the zone of inhibition at 400 µg/disc amounted to 18 mm in data set [18] (400 μg/disc); 14 mm in data set [19] (400 μg/disc); 12 mm in [20] (400 μg/disc); 15 mm in [21]; 16 mm in data set [22] (400 μg/disc). Further, the LC50 at 24 h in data set [2] turned out to be 16.2 ± 1.11 µg/mL (≈ 53.5 µM). Further, the IC50 in [3] is 111 µM; in [14], 115 µM. Further, the “Zone of Inhibition” value in data set [6] (400μg/disc) is given as “−”. Moreover, the “absorbance (reducing power)” value in data set [9] came to 1.26.
On to `O.Oc1cc(O)c2c(c1)O[C@H](c1ccc(O)c(O)c1)[C@@H](O)C2` [catechin, reference compound], for which the “absorbance (reducing power)” value in data set [9] was found to be 2.14.
As for `NC[C@H]1O[C@H](O[C@H]2[C@H](O)[C@@H](O[C@H]3O[C@H](CO)[C@@H](O)[C@H](N)[C@H]3O)[C@H](N)C[C@@H]2N)[C@H](O)[C@@H](O)[C@@H]1O` [Std. Kan, kanamycin, reference compound], the “Zone of Inhibition” value in data set [1] (30 μg/disc) is given as 28 mm; in [4] (30 μg/disc), 32 mm; in [7] (30 μg/disc) it was 33 mm; in data set [8] (30 μg/disc), 31 mm; in data set [10] (30 μg/disc) it was 31 mm; in data set [11] (30 μg/disc), 24 mm. Besides, the “Zone of Inhibition” value is on record as 27 mm in [12] (30 μg/disc); 28 mm in data set [13] (30 μg/disc); 27 mm in data set [16] (30 μg/disc); 27 mm in data set [18] (30 μg/disc); 31 mm in [19] (30 μg/disc); 27 mm in [20] (30 μg/disc). Moreover, the results for the “Zone of Inhibition” value in data set [21] and in [22] (30 μg/disc) were 31 mm and 29 mm, respectively.
For `C[C@@]12CCC[C@@](C)(C(=O)O)[C@H]1CC[C@@]13C[C@@H](CC[C@H]12)[C@](C)(O)C3` [Compound 1, (-) kaur-16α-hydroxy-19-oic acid], the zone of inhibition at 400 µg/disc in [1] (400 μg/disc) was 13 mm; in data set [4] (400 μg/disc), 19 mm; in data set [5] (400μg/disc), 14 mm; in [7] (400 μg/disc), 23 mm; in [8] (400 μg/disc) it was 15 mm; in data set [10] (400 μg/disc), 15 mm. In addition, the zone of inhibition at 400 µg/disc in data set [11] (400 μg/disc) amounted to 13 mm; in data set [12] (400 μg/disc), 12 mm; in data set [13] (400 μg/disc), 15 mm; in data set [15] (400μg/disc) it was 12 mm; in [16] (400 μg/disc), 14 mm; in data set [18] (400 μg/disc) it was 17 mm. Moreover, the zone of inhibition at 400 µg/disc was 13 mm in [19] (400 μg/disc), 14 mm in data set [20] (400 μg/disc), 14 mm in data set [21] and 17 mm in data set [22] (400 μg/disc). For the same compound, in [2], the 50% lethal concentration (LC50) at 24 h worked out at 12.4 ± 0.87 µg/mL (≈ 38.8 µM). Also, the IC50 was 145 µM in data set [3] (mean ± SD (n = 3), read-out: IC50, inhibition of butyrylcholinesterase (BChE) (converted)) and 152 µM in data set [14] (mean ± SD (n = 3), read-out: IC50, inhibition of acetylcholinesterase (AChE) (converted)). Moreover, the “Zone of Inhibition” value in [6] (400μg/disc) is “−”; in [17] (400μg/disc) it was “inactive and −”. Also, the “absorbance (reducing power)” value in [9] is 1.55.
In the case of `CC[C@H](CC[C@@H](C)[C@H]1CC[C@H]2[C@@H]3CC=C4C[C@@H](O)CC[C@]4(C)[C@H]3CC[C@]12C)C(C)C` [Compound 3, β-sitosterol], the “Zone of Inhibition” value in [1] (400 μg/disc), in [4] (400 μg/disc), in data set [5] (400μg/disc), in data set [6] (400μg/disc), in data set [7] (400 μg/disc) and in data set [8] (400 μg/disc) was “−” in each case. In addition, the “Zone of Inhibition” value in data set [10] (400 μg/disc), in data set [11] (400 μg/disc), in [12] (400 μg/disc), in [13] (400 μg/disc), in [15] (400μg/disc) and in data set [16] (400 μg/disc) was “−” throughout. In addition, the “Zone of Inhibition” value in data set [17] (400μg/disc), in data set [18] (400 μg/disc), in data set [19] (400 μg/disc), in [20] (400 μg/disc), in data set [21] and in data set [22] (400 μg/disc) was “−” in each case. Moreover, the “cytotoxic effects (in words)” value in data set [23] was “All the compounds except 3 showed significant cytotoxic effects”. In addition, the concentration for half-maximal inhibition (IC50) was 104 µM in data set [3] and 107 µM in data set [14].
As to `CC(C)C=CC[C@@H](C)[C@H]1CC[C@H]2[C@@H]3CC=C4CC(O)CC[C@]4(C)[C@H]3CC[C@]12C` (some centres unmarked) [Compound 4, cholesta-5,23-dien-3-ol], the zone of inhibition at 400 µg/disc in [1] (400 μg/disc) came out at 10 mm; in [4] (400 μg/disc) it was 13 mm; in [7] (400 μg/disc) it was 9 mm; in data set [8] (400 μg/disc) it was 12 mm; in data set [10] (400 μg/disc) it was 12 mm; in data set [11] (400 μg/disc) it was 12 mm. Moreover, the zone of inhibition at 400 µg/disc was found to be 11 mm in [12] (400 μg/disc); 13 mm in data set [13] (400 μg/disc); 13 mm in [16] (400 μg/disc); 12 mm in [18] (400 μg/disc); 10 mm in data set [19] (400 μg/disc); 12 mm in [20] (400 μg/disc). In addition, the zone of inhibition at 400 µg/disc in data set [21] is 14 mm; in data set [22] (400 μg/disc) it was 13 mm. In data set [2], this compound came in with an LC50 at 24 h of 14.3 ± 0.87 µg/mL (≈ 37.1 µM). Besides, the results for the 50% inhibitory concentration (IC50) in data set [3] and in data set [14] were 124 µM and 117 µM, respectively. Further, the “Zone of Inhibition” value in data set [5] (400μg/disc), in [6] (400μg/disc), in data set [15] (400μg/disc) and in data set [17] (400μg/disc) was “−” in each case. Further, the “absorbance (reducing power)” value in data set [9] amounted to 1.89.
Regarding `C[C@@H]1[C@H](O)[C@@H](C)/C=C/C=C/CC/C=C/C=C/C=C/C=C/C(O[C@H]2O[C@H](C)[C@@H](O)[C@H](N)[C@@H]2O)CC2O[C@](O)(CC(O)C(O)CCC(O)CC(O)CC(O)CC(=O)O[C@H]1C)CC(O)C2C(=O)O` (some centres unmarked) [Std. Nystatin, nystatin, reference compound], the “Zone of Inhibition” value in [5] (50 μg/disc) is 30 mm; in data set [6] (50 μg/disc), 29 mm; in [15] (50 μg/disc), 26 mm; in data set [17] (50 μg/disc), 28 mm.
Consider `CC[C@]1(O)C[C@H]2CN(CCc3c([nH]c4ccccc34)[C@@](C(=O)OC)(c3cc4c(cc3OC)N(C=O)[C@H]3[C@@](O)(C(=O)OC)[C@H](OC(C)=O)[C@]5(CC)C=CCN6CC[C@]43[C@@H]65)C2)C1` [Vincristine, vincristine, reference compound], for which the LC50 at 24 h in data set [2] was 3.48 ± 0.36 µg/mL (≈ 4.22 µM).

For the origin of these results see article PMC9865212, “Compounds from the Petroleum Ether Extract of Wedelia chinensis with Cytotoxic, Anticholinesterase, Antioxidant, and Antimicrobial Activities” (Molecules, 2023).
